The values below come from patent US20160009769A1, “PROCESSES FOR ISOLATING SALICYCLIC ACID RECEPTORS” (NEOPRO LABS, LLC, priority 2013, published 2016).

Experiment [1] deals with SARP. The experiment in a line: Dynamic light scattering (DLS) of SARP micelles/gel in water. The format is biochemical, Sauromatum. Particulars: for micelle size after 20 min: 20 min after addition to 0.1 pM SARP in water; for micelle size upon addition: added to 0.1 pM SARP in water. On the procedure: Organized droplets are seen under the light microscope when SARP solution is spread on a glass slide. Upon addition of DTT or mercaptoethanol the micelle size reduces to ˜300 nm, and after 20 min, the size increases back to ˜800 nm. […] The swelling and shrinking were discontinuous. Addition of 10 μM ATP stops the oscillation for ˜30 min. and then it is resumed at the same kinetics.
FIG. 11. SARP was purified from D-day appendices using RP-HPLC-ESI-MS. Purified SARP was solubilized in distilled water and analyzed using DLS. […] T, period.
Upon addition of water to the dry protein at a final concentration of 0.1 pM, micelles formed with a uniform size of ˜800 nm (FIG. 5). Upon addition of DTT or β-mercaptoethanol the micelle size reduced to ˜300 nm, and after 20 min, the size increased back to ˜800 nm. […] Addition of 10 μM ATP stopped the oscillation for ˜30 min. and then it resumed with the same kinetics.

Experiment [2] relates to SARP. The experiment in a line: ESI-MS charge state distribution (conformation) of SARP from Sauromatum appendix after treatment with salicylates. On the set-up: species or system Sauromatum guttatum. An excerpt:
It is an aspect of the present invention to provide a method of detection and characterization of SARP using RP-HPLC/ESI-MS. This is accomplished using on-line splitting of 5 to 10% of the effluent from the UV detector to a Micromass Quattro II tandem quadrupole MS fitted with an ESI source (Waters Inc.) via a variable splitter allowing manual fraction collection. This instrument is operated in a positive ESI mode at a probe tip voltage of 3.6 kV and a cone voltage of 45 V. The source and nebulizer temperatures are maintained at 150 and 400° C., respectively, using N2 as both nebulizing and bath gas. The instrument is calibrated using water clusters over the range of 100-2400 Da with data acquisition is carried out from m/z 500 to 2000 in the continuum-scanning mode at 450 Da sec^1. Instrument tuning, mass calibration, data acquisition, processing and display are accomplished using MassLynx™ and MaxEnt™ software (Waters Inc.). This procedure provided a protein molecular mass with an accuracy of ˜0.1%.
FIG. 13. […] The ESI-MS spectra is different that that of ASA and SA. It is more expanded, lower m/z values.
Monomeric SARP undergoes a large-scale conformation transition from one state to another in the Sauromatum appendix during development. […] The concentration of SA in the appendix tissue is ˜1 μg/g fresh wt^4, and it is equivalent to ˜7 μM, within the range of this experiment.

For experiment [3], the system named is SARP. As to the kind of experiment: UV spectra of SARP in the presence of ligands. The format is biochemical. Particulars: 1 pM SARP. On the procedure:
FIG. 14. UV spectra of SAR in the presence of 2,6-DHBA. Freshly dissolved SAR was incubated with 2,6-DHBA and samples were taken for spectral analysis at the same time when the effect of SA on SAR was determined. The data present acquired spectra after baseline subtraction of each compound added to SAR. Every 3 min. after the addition of SAR a spectrum was recorded. A, The first 6 spectra were downward relative to the baseline (solid line). The following spectra were upward (broken line). (ME, β-mercaptoethanol).
FIG. 15. UV spectra of SAR in the presence of GTP, SA, and ATP. Freshly dissolved SARP was incubated with GTP and samples were taken for spectral analysis. Later, ME and SA were added to the sample, and finally ATP was added to the sample. The data present acquired spectra after baseline subtraction of each compound added to SARP. […] (ME, β-mercaptoethanol).
Thus, according to certain related embodiments, UV absorbance spectra of SARP may fluctuate over time when absorbance measurements are collected over a range of wavelengths and at a plurality of time points, if a salicylate-related compound is present or, under other chemical environments as described below. […] In certain preferred embodiments the change may be detected at wavelengths from (inclusively) 190 nm to 280 nm, where it will be appreciated that selection of a suitable wavelength may vary as a function of several factors including protein concentration, solution composition (e.g., absorbance properties of buffers, salts, etc.), instrument sensitivity, and other related attributes of a spectroscopic configuration.

Another experiment deals with Sauromatum appendix. To be noted: cited from earlier work; for triggering of heat production: S. guttatum.
Experiment [4] concerns SARP. The experiment in a line: Reduction of tetrazolium salts by SARP in the presence of pyridine. The format is biochemical. To be noted: tetrazolium salt 4 μM, pyridine 30%, 5 min at room temperature; mean of two determinations. An excerpt:
Additionally and as described herein, SARPs are capable of unidirectionally transferring one or two electrons to an electron acceptor such as 3-(4,5-dimethyl thiazol-2-yl-(2,5-diphenyl) tetrazolium bromide (MTT), nitro blue tetrazolium (NBT) or neotetrazolium chloride (Neo-NBT), or to ferricytochrome c.

Experiment [5] relates to SARP. The experiment in a line: Effect of SA on the levels of SARP in the Sauromatum appendix. On the set-up: species or system Sauromatum guttatum. Particulars: D-1 appendix placed in 10 μM SA, protein extracted next morning; control in water 160. On the procedure: In certain embodiments SARP is isolated using organic solutions. Tissues are ground n a juicer grinder in an organic extraction solution containing 50% IP, 2 mM β-mercaptoethanol, 0.5 mM EDTA, 5 mM butylated hydroxy-toluene, 0.1% tocopherol acetate, 0.1% polyvinylpoly-pyrrolidone (insoluble, Sigma-Aldrich Corp.) in 40 mM imidazole/HCl buffer, pH 7.0, at a weight/volume ratio of 1 g of tissue per 5 ml of extraction solution. The extract is centrifuged at 15,000 g for 10 min and the pellet is discarded. A strong cationic resin (DOWEX X-50, Sigma-Aldrich Corp.) is added to the supernatant (30 mg resin per ml) and stirred for 2.5 h at 4° C. The mixture is then centrifuged at 30 g for 2 min, and the supernatant is discard. The Dowex resin is washed several times, first with the extraction solution and finally with distilled water until a clear wash is obtained. Subsequently, the resin is again washed 2 times with 0.15 M phosphate buffer, pH 7.0. […] The protein solution is dialyzed using a 12-14 kDa cut-off dialysis bag against 3 L of distilled water at 4° C., the water is changed twice during 24 h. The content of the dialysis bag is removed and centrifuged at 10,000 g for 15 min. The pellet is used for SARP purification.
In certain embodiments SARP is purified using a reversed-phase high-performance liquid chromatography (RP-HPLC) on-line to elecrosray ionization-mass spectromer (ESI-MS). […]

Another experiment concerns Human SARP. The experiment in a line: ESI-MS conformation of SARP purified from SK-N-SH cells treated with SA. The experiment is classed as cell-based. To be noted: SK-N-SH cells treated with 10 μM. An excerpt: The charge state distribution (CSD) of the human SARP is identical to its plant counterpart from the Sauromatum appendix during heat-production. […] This regulatory activity behaves as a metabolic switch that switching on and off heat-production. SARP can be a metabolic switch in the cytoplasm and mitochondria. […] However, if SA level fluctuates, SARP can be either in state B (compact) or state A (extanded) and consequently, can trigger oscillatory thermogenicity. In a more complex model, the cytoplasmic and the mitochondrial switch will have to be to be in state B. There are four possibilities for the output for both switches. When both switches are in states B, a singular event of heat-production occurs. Other options are cytoplasmic SARP in state A and mitochondrial SARP in either state A or B. Or, cytoplasmic SARP in state B and mitochondrial SARP in state A.
FIG. 16. Purification of SARP from SK-N-SH cells using perfusion chromatography. SARP was purified using RP-HPLC/ESI-MS. TIC chromatogram with solvent gradient overlay (A). Ion current chromatograms of m/z 1139 (B) and 1178, (C) corresponding to [M+30H]^30+ and […] charge states of the protein. Solvent A is 0.05% TFA in aqueous solution and solvent B is 0.05% aqueous TFA in ACN:IP at a ratio 2:1.
FIG. 17. Electrospray ionization mass spectrua of SARP from the SK-N-SH cells and Sauromatum appendix. […]

Setting [6] is: higher concentrations, 100 and 200 μM.

For `O[C@H](CS)[C@H](O)CS` (racemic) [DTT, dithiothreitol], in the experiment on SARP [1], the “micelle size after 20 min” value is recorded as around 800 nm and the “micelle size upon addition” value is reported as around 300 nm.

For the compound `O=C(O)c1c(O)cccc1O` [2,6-DHBA, 2,6-dihydroxybenzoic acid], the “ESI-MS spectra of SARP compared with ASA and SA” value in the experiment on SARP [2] (D-2 and D-3 appendix sections incubated overnight in 100 μM) is listed as “more expanded”. In addition, the “conformational state of SARP” value in the experiment on SARP [2] (setting [6]) is listed as “conformations that are more extended than state A”. Further, in the experiment with SARP [3] (incubation with NADH), the “effect on UV spectrum of SARP” value was “did not exert the same effect”. Besides, in the experiment on Sauromatum appendix, the “triggering of heat production” value is given as “can also trigger heat production”.

Regarding `O=C(O)c1ccc(O)c(O)c1` [3,4-DHBA, 3,4-dihydroxybenzoic acid], the “effect on UV spectrum of SARP” value in the experiment with SARP [3] (incubation with NADH) is “did not exert the same effect”.

As to `CC(=O)Oc1ccccc1C(=O)O` [ASA, aspirin], in the experiment on Sauromatum appendix, the “triggering of heat production” value is listed as “can also trigger heat production”.

For `Nc1ncnc2c1ncn2[C@@H]1O[C@H](COP(=O)(O)OP(=O)(O)OP(=O)(O)O)[C@@H](O)[C@H]1O` [ATP], in the experiment with SARP [1] (10 μM added to oscillating SARP gel), the “time the oscillation is stopped” value is on record as around 30 min.

As for `Cc1nc(-[n+]2nc(-c3ccccc3)nn2-c2ccccc2)sc1C.[Br-]` [MTT], the O.D.530 in the experiment on SARP [4] worked out at 0.17.

With `COc1cc(-c2ccc(-n3nc(-c4ccccc4)n[n+]3-c3ccc([N+](=O)[O-])cc3)c(OC)c2)ccc1-n1nc(-c2ccccc2)n[n+]1-c1ccc([N+](=O)[O-])cc1` [NBT, nitro blue tetrazolium], the O.D.530 in the experiment on SARP [4] came to 0.14.

For the compound `c1ccc(-c2nn(-c3ccccc3)[n+](-c3ccc(-c4ccc(-[n+]5nc(-c6ccccc6)nn5-c5ccccc5)cc4)cc3)n2)cc1` [NeoT, neotetrazolium chloride], the O.D.530 in the experiment with SARP [4] came to 0.06.

Turning to `O=C(O)c1ccccc1O` [SA, salicylic acid], in the experiment on SARP [5], the “SARP (ng/g fresh wt.)” value is recorded as 30 ng/g fresh wt. For the same compound, the entries for the “conformational state of SARP” value in the experiment on SARP [2] (10 μM applied to pre D-day appendices) and in the experiment with SARP [2] (setting [6]) were “induced a transition from state A in which SA undetectable in the tissue to state B” and “conformations that are more extended than state A”, respectively. The “conformation of human SARP” value with Human SARP is reported as “a shift to a much more compact conformation”. Also, the “effect on micelle size” value in the experiment on SARP [1] (1 pM, molar ratio [SARP]/[SA]<0.1) is reported as “immediately decreased the micelle size”. In addition, the “period of gel expansion/shrinking oscillation” value in the experiment with SARP [1] (after addition of 1 pM SA) fell in the range of 4 to 5 min. The “effect on UV spectrum of SARP” value in the experiment with SARP [3] (incubation of SA and GTP and ATP) is “appearance of new bands from 197 to 230”; in the experiment on SARP [3] (incubation with NADH), “a shift in a band from 197 to 230”. In the experiment on Sauromatum appendix (added on D-1 morning, the next morning, untreated section stays at ambient temperature), the “temperature rise of appendix section” value is “up to 32 °C”.

In the case of `OCCS` [β-mercaptoethanol], in the experiment with SARP [1], the “micelle size after 20 min” value is reported as around 800 nm and the “micelle size upon addition” value was around 300 nm.
